The test system of assay [1] is Morganella morganii. Nature of the assay: Antibacterial activity against beta-lactamase producing Morganella morganii ATCC 25830 after 18 hrs by agar dilution method. Format: functional. Conditions: ATCC 25830, 18 h. A general note: In agar dilution, organisms are placed on agar that contains the substance at set levels.
In assay [2] the test system is Proteus vulgaris. The assay is described as follows: Antibacterial activity against beta-lactamase producing Proteus vulgaris ATCC 29905 after 18 hrs by agar dilution method. The class given is functional. Conditions: ATCC 29905, 18 h.
The test system of assay [3] is Acinetobacter calcoaceticus. Nature of the assay: Antibacterial activity against beta-lactamase producing Acinetobacter calcoaceticus ATCC 19606 after 18 hrs by agar dilution method. The class given is functional. Particulars: ATCC 19606, 18 h.
Assay [4] deals with HepG2. The assay is described as follows: Cytotoxicity against human HepG2 cells assessed as growth inhibition after 48 hrs by sulforhodamine B assay. The class given is functional, cell-based. Conditions: HepG2, 48 h. In general terms: In SRB staining, fixed cells bind dye roughly in proportion to their protein.
In assay [5] the test system is MCF7. The assay is described as follows: Cytotoxicity against human MCF7 cells assessed as growth inhibition after 48 hrs by sulforhodamine B assay. The class given is functional, cell-based. Conditions: MCF7, 48 h.
In assay [6] the test system is K562. The assay is described as follows: Cytotoxicity against human K562 cells assessed as growth inhibition after 48 hrs by sulforhodamine B assay. Format: functional, cell-based. Conditions: K562, 48 h.
The test system of assay [7] is Staphylococcus aureus. Nature of the assay: Antibacterial activity against methicillin-susceptible Staphylococcus aureus ATCC 29213 after 18 hrs by agar dilution method. Format: functional. Particulars: ATCC 29213, 18 h.
Assay [8] relates to Staphylococcus aureus. Nature of the assay: Antibacterial activity against methicillin-susceptible Staphylococcus aureus 15 after 18 hrs by agar dilution method. Format: functional. Particulars: Staphylococcus aureus, 15, 18 h.
Assay [9] concerns Staphylococcus aureus. Nature of the assay: Antibacterial activity against methicillin-resistant Staphylococcus aureus ATCC 33591 after 18 hrs by agar dilution method. The class given is functional. Particulars: ATCC 33591, 18 h.
Assay [10] relates to Staphylococcus aureus. Nature of the assay: Antibacterial activity against methicillin-resistant Staphylococcus aureus 12-28 after 18 hrs by agar dilution method. Format: functional. Particulars: 12-28, 18 h.
The subject of assay [11] is Staphylococcus aureus. The assay is described as follows: Antibacterial activity against methicillin-resistant Staphylococcus aureus 12-33 after 18 hrs by agar dilution method. Format: functional. Particulars: 12-33, 18 h.
For assay [12], the system named is Staphylococcus epidermidis. Nature of the assay: Antibacterial activity against methicillin-susceptible Staphylococcus epidermidis ATCC 12228 after 18 hrs by agar dilution method. The class given is functional. Particulars: ATCC 12228, 18 h.
In assay [13] the test system is Staphylococcus epidermidis. The assay is described as follows: Antibacterial activity against methicillin-resistant Staphylococcus epidermidis 12-6 after 18 hrs by agar dilution method. Particulars: 12-6, 18 h. Format: functional.
Assay [14] relates to Staphylococcus epidermidis. Nature of the assay: Antibacterial activity against methicillin-resistant Staphylococcus epidermidis 12-8 after 18 hrs by agar dilution method. The class given is functional. Conditions: 12-8, 18 h.
For assay [15], the system named is Enterococcus faecalis. Nature of the assay: Antibacterial activity against vancomycin-susceptible Enterococcus faecalis ATCC 29212 after 18 hrs by agar dilution method. The class given is functional. Particulars: ATCC 29212, 18 h.
The test system of assay [16] is Enterococcus faecalis. The assay is described as follows: Antibacterial activity against vancomycin-resistant Enterococcus faecalis ATCC 51299 after 18 hrs by agar dilution method. The class given is functional. Particulars: ATCC 51299, 18 h.
Assay [17] deals with Enterococcus faecalis. The assay is described as follows: Antibacterial activity against vancomycin-resistant Enterococcus faecalis 12-5 after 18 hrs by agar dilution method. Conditions: 12-5, 18 h. Format: functional.
Assay [18] deals with Enterococcus faecalis. Nature of the assay: Antibacterial activity against vancomycin-resistant Enterococcus faecalis 09-9 after 18 hrs by agar dilution method. Format: functional. Particulars: 09-9, 18 h.
Assay [19] relates to Enterococcus faecium. The assay is described as follows: Antibacterial activity against vancomycin-resistant Enterococcus faecium ATCC 700221 after 18 hrs by agar dilution method. Conditions: ATCC 700221, 18 h. Format: functional.
The subject of assay [20] is Enterococcus faecium. The assay is described as follows: Antibacterial activity against vancomycin-resistant Enterococcus faecium 12-1 after 18 hrs by agar dilution method. Format: functional. Particulars: 12-1, 18 h.
In assay [21] the test system is Enterococcus faecium. The assay is described as follows: Antibacterial activity against vancomycin-resistant Enterococcus faecium 12-3 after 18 hrs by agar dilution method. Format: functional. Conditions: 12-3, 18 h.
Assay [22] relates to Escherichia coli. Nature of the assay: Antibacterial activity against beta-lactamase producing Escherichia coli ATCC 25922 after 18 hrs by agar dilution method. The class given is functional. Conditions: ATCC 25922, 18 h.
For assay [23], the system named is Klebsiella pneumoniae. The assay is described as follows: Antibacterial activity against extended spectrum beta-lactamase producing Klebsiella pneumoniae ATCC 700603 after 18 hrs by agar dilution method. The class given is functional. Particulars: ATCC 700603, 18 h.
The test system of assay [24] is Klebsiella pneumoniae. The assay is described as follows: Antibacterial activity against NDM-1 producing Klebsiella pneumoniae ATCC BAA-2146 after 18 hrs by agar dilution method. Format: functional. Conditions: ATCC BAA-2146, 18 h.
Assay [25] has as its system Pseudomonas aeruginosa. The assay is described as follows: Antibacterial activity against beta-lactamase producing Pseudomonas aeruginosa ATCC 27853 after 18 hrs by agar dilution method. The class given is functional. Conditions: ATCC 27853, 18 h.

These results are taken from ChEMBL document CHEMBL3608229, “Saccharothrixones A-D, Tetracenomycin-Type Polyketides from the Marine-Derived Actinomycete Saccharothrix sp. 10-10” (J Nat Prod, 2015).

The MIC is the lowest concentration that inhibits growth of the organism. The IC50 is the concentration at which inhibition is half-maximal. On to `COC(=O)c1c(OC)cc2cc3c(c(O)c2c1C)C(=O)O[C@@H]3[C@@]1(O)[C@H](O)C(OC)=CC(=O)[C@@H]1O`, for which the minimal inhibitory concentration (MIC) in assay [1], in [2], in [3], in [7], in [8] and in assay [9] was over 64 µg/mL throughout. Besides, the MIC in assay [10], in assay [11], in assay [12], in assay [13], in [14] and in [15] was over 64 µg/mL throughout. Also, the minimum inhibitory concentration (MIC) in assay [16], in assay [17], in assay [18], in assay [19], in [20] and in assay [21] was over 64 µg/mL throughout. Also, the MIC in assay [22], in assay [23], in [24] and in assay [25] was over 64 µg/mL in each case. The half-maximal inhibitory concentration (IC50) in assay [4], in assay [5] and in assay [6] was over 100 µM throughout.

As for `COC(=O)c1c(OC)cc2cc3c(c(O)c2c1C)C(=O)O[C@@H]3[C@@]1(O)[C@H](O)C(OC)=CC(=O)[C@@H]1OC`, the MIC in assay [1], in assay [2], in assay [3], in assay [7], in assay [8] and in [9] was over 64 µg/mL in each case. Also, the minimal inhibitory concentration (MIC) in assay [10], in assay [11], in assay [12], in assay [13], in assay [14] and in [15] was over 64 µg/mL throughout. The minimum inhibitory concentration (MIC) in assay [16], in assay [17], in assay [18], in [19], in assay [20] and in [21] was over 64 µg/mL throughout. For the same molecule, the MIC in assay [22], in [23], in assay [24] and in assay [25] was over 64 µg/mL each time. The IC50 in [4], in assay [5] and in assay [6] was over 100 µM throughout.

On to `COC(=O)c1c(OC)cc2cc3c(c(O)c2c1C)C(=O)O[C@H]3[C@@]1(O)[C@H](O)C(OC)=CC(=O)[C@H]1OC`, for which the MIC in assay [1], in assay [2], in assay [3], in assay [7], in assay [8] and in assay [9] was over 64 µg/mL throughout. Further, the MIC in assay [10], in [11], in assay [12], in [13], in assay [14] and in assay [15] was over 64 µg/mL in each case. The MIC in assay [16], in assay [17], in assay [18], in [19], in [20] and in assay [21] was over 64 µg/mL in each case. Moreover, the minimal inhibitory concentration (MIC) in assay [22], in [23], in assay [24] and in assay [25] was over 64 µg/mL in each case. The concentration for half-maximal inhibition (IC50) in assay [4], in [5] and in assay [6] was over 100 µM each time.

As for `COC(=O)c1c(OC)cc2cc3c(c(O)c2c1C)C(=O)[C@@]1(O)C(OC)=CC(=O)[C@H](OC)[C@@]1(O)C3=O`, the MIC in [1], in [2], in [3], in assay [7], in [8] and in assay [9] was over 64 µg/mL in each case. In addition, the MIC in assay [10], in [11], in assay [12], in assay [13], in assay [14] and in [15] was over 64 µg/mL throughout. Further, the MIC in assay [16], in [17], in assay [18], in assay [19], in assay [20] and in [21] was over 64 µg/mL in each case. The MIC in assay [22], in assay [23], in assay [24] and in [25] was over 64 µg/mL each time. Further, the IC50 in assay [4] was 7.5 µM; in assay [5] it was 16.2 µM; in [6], 20.8 µM.

For `COC(=O)c1c(OC)cc2cc3c(c(O)c2c1C)C(=O)[C@]1(OC)C(=O)C=C(OC)[C@@H](O)[C@]1(O)C3=O`, the IC50 in [4] came out at 1.6 µM; in assay [5], 1.5 µM; in assay [6], 5.2 µM.

With `COc1cccc2c1C(=O)c1c(O)c3c(c(O)c1C2=O)C[C@@](O)(C(=O)CO)C[C@@H]3O[C@H]1C[C@H](N)[C@H](O)[C@H](C)O1` [DOXORUBICIN], the figures for the IC50 in [4] and in assay [6] were 5.4 µM and 10.9 µM, respectively.

As to `C[C@H]1COc2c(N3CCN(C)CC3)c(F)cc3c(=O)c(C(=O)O)cn1c23.C[C@H]1COc2c(N3CCN(C)CC3)c(F)cc3c(=O)c(C(=O)O)cn1c23.O` [LEVOFLOXACIN], the minimal inhibitory concentration (MIC) in assay [1] was 0.06 µg/mL; in [2] it was at most 0.03 µg/mL; in [3], 0.5 µg/mL; in assay [7], 0.25 µg/mL; in [8], 0.25 µg/mL; in [9], 0.25 µg/mL. Further, the MIC was found to be 0.25 µg/mL in assay [10]; 128 µg/mL in assay [11]; 0.25 µg/mL in assay [12]; 0.5 µg/mL in [13]; 8 µg/mL in assay [14]; 0.5 µg/mL in assay [15]. The minimal inhibitory concentration (MIC) in assay [16] is 0.5 µg/mL; in [17], 0.5 µg/mL; in assay [18], over 128 µg/mL; in assay [19], 128 µg/mL; in assay [20], 32 µg/mL; in assay [21], 64 µg/mL. Moreover, the MIC was at most 0.03 µg/mL in assay [22], over 128 µg/mL in [24] and 0.5 µg/mL in assay [25].
